Literature values, collected in patent publication US11648211B2, “Nanoencapsulated combination drug formulations” (priority 2019, dated 2023).
Like-named read-outs stand apart in the source and are kept apart here.

System: spontaneous breast cancer

What does the source list for `Cn1ncnc1[C@H]1c2n[nH]c(=O)c3cc(F)cc(c23)N[C@@H]1c1ccc(F)cc1` [TLZ, Talazoparib]?
animals with alopecia (i.v.): 25%; animals with alopecia (oral): 25%
